Tests used:
[1] = tested on: any other known protease; conditions: Meng et al., 1999; cited from earlier work
[2] = In vitro cytotoxicity
[3] = Maximum tolerated dose determination, intravenous, female BALB/c mice; type: in vivo
Description: In vivo studies were designed to determine the MTD of Salinosporamide A when administered intravenously to female BALB/c mice.

[4] = target: proteasome (Homo sapiens, UniProt Q99436); experiment: Trypsin-like inhibitory activity of the proteasome (summary); type: biochemical; conditions: proteasome source not stated
[5] = target: T1, proteasome chymotrypsin-like activity in Packed Whole Blood Lysate (Mus musculus, UniProt O55234); experiment: Whole blood proteasome activity (PWBL assay) after dosing of mice; type: in vivo; conditions: male Swiss-Webster mice
T1 construct: The supernatant (Packed Whole Blood Lysate, PWBL) was transferred to a fresh tube; from tissue; host or cells: packed whole blood cells of Swiss-Webster mice, hypotonic lysate
T1 sequence (O55234 60-264): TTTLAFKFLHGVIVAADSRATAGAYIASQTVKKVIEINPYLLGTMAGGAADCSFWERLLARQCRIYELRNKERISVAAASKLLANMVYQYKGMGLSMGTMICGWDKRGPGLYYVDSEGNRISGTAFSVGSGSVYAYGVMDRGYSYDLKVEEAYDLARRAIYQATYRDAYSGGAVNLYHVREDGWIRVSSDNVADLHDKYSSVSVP
Method: In brief, frozen whole blood samples were thawed on ice for one hour, and resuspended in 700 μL of ice cold 5 mM EDTA, pH 8.0 in order to lyse the cells by hypotonic shock. This represents approximately 2-3 times the volume of the packed whole blood cells. Lysis was allowed to proceed for one hour, and the cellular debris was removed by centrifugation at 14,000×g for 10 minutes. The supernatant (Packed Whole Blood Lysate, PWBL) was transferred to a fresh tube, and the pellet discarded. Protein concentration of the PWBL was determined by BCA assay (Pierce) using BSA as a standard.
Proteasome activity was determined by measuring the hydrolysis of a fluorogenic substrate specific for the chymotrypsin-like activity of proteasomes (suc-LLVY-AMC, Bachem Cat. 1-1395). […] The reactions were initiated by the addition of 10 μL of 0.4 mM suc-LLVY-AMC (prepared by diluting a 10 mM solution of the peptide in DMSO 1:25 with assay buffer), and incubated in a fluorometer (Labsystems Fluoroskan) at 37° C. Hydrolysis of the substrate results in the release of free AMC, which was measured fluorometrically by using λex=390 nm and λem=460 nm. The rate of hydrolysis in this system is linear for at least one hour. The hydrolysis rate of each sample is then normalized to relative fluorescent units per milligram of protein (RFU/mg).
The vehicle control consisted of 2% DMSO in 10% solutol. […]

[6] = tested on: IκBα, p21 and p27; experiment: Western blot analyses in NF-κB/Luc 293 cells; type: cell-based, human
Description: (§1) Furthermore, a stable HEK293 clone (NF-κB/Luc 293) was generated carrying a luciferase reporter gene under the regulation of 5×NF-κB binding sites.

[7] = tested on: NF-κB/IκB signaling pathway; experiment: TNF-α stimulated HEK293 cells, IκBα phosphorylation and degradation; type: cell-based, human; conditions: HEK293 cells pre-treated 1 hour, then TNF-α stimulation
Description: Treatment of HEK293 cells (human embryonic kidney) with Tumor Necrosis Factor-alpha (TNF-α) induces phosphorylation and proteasome-mediated degradation of IκBα followed by NF-κB activation.

[8] = tested on: Mycobacterium tuberculosis; experiment: Survival assays of Mycobacterium tuberculosis on agar plates after nitrite exposure; type: cell-based; conditions: plating on agar after 6 days of exposure; present-tense example without data
[9] = tested on: NF-κB; experiment: NF-κB/Luc 293 luciferase reporter assay with TNF-α stimulation; type: cell-based, human; conditions: NF-κB/Luc 293 cells, pretreatment before TNF-α
Description: as §1

[10] = NF-κB/Luc 293 cells, Western blot

SMILES | inhibitory activity towards other proteases [1] | EC50 [2] | behavioral changes ([3]; during the course of the experiment) | well tolerated dose ([3]; i.v. daily for five consecutive days (qdx5)) | tolerated dose ([3]; single intravenous dose (qdx1)) | trypsin-like inhibitory activity [4] | proteasomal activity in PWBL ([5]; blood 90 min after administration, dose dependent (FIG. 4)) | activity upon oral administration (PWBL proteasome inhibition) ([5]; oral dosing) | levels of cell cycle regulatory proteins p21 and p27 [6] | degradation of total IκBα [6, 10] | phosphorylated-IκBα level [6, 10] | phosphorylated IκBα level [7] | antimycobacterial effect of nitrite [8] | luciferase activity [9]
CC[C@H](C)[C@H](NC(=O)[C@H]([C@@H](C)CC)N(C)C(C)=O)C(=O)N[C@H](C(=O)N[C@@H](CC(C)C)C(=O)[C@@]1(C)CO1)[C@@H](C)O [Epoxomicin] | no inhibitory activity towards any other known protease |  |  |  |  |  |  |  |  |  |  |  |  | 
C[C@@]12OC(=O)[C@]1([C@@H](O)[C@@H]1C=CCCC1)NC(=O)[C@@H]2CCCl [Salinosporamide A] |  | 0.01 to 0.2 µM | No behavioral changes were noted | up to 0.1 mg/kg | up to 0.25 mg/kg | ~10 nM | profound decrease in proteasomal activity in PWBL | active upon oral administration | increase the levels | decreased the degradation of total IκBα | promoted the accumulation of phosphorylated-IκBα | promoted the accumulation of phosphorylated IκBα | able to augment the antimycobacterial effect of nitrite | decreases activity
